In patent US9375413B2, “Methods of reducing milk somatic cell count” ([…], priority 2014, dated 2016):

Columns and labels:
twin-bearing ewes = assay: Somatic cell count (SCC) in milk after arginine supplementation in mid-late gestation (Example 2); assay type: in vivo, sheep; conditions: for somatic cell count (SCC) lower than controls: trend P<0.15
Source text: FIG. 3 is a graph from a further study confirming the effect of arginine supplementation from 100 days gestation to birth in twin-bearing ewes on somatic cell count (SCC) in milk. Data was log transformed for analysis—back transformed values are presented.
In a second experiment ewes were supplemented with arginine during mid-late gestation that stopped at parturition.

sheep = conditions: not in gestation, one off dose; cited from earlier work
[1] = system: Twin-bearing, multiparous Romney ewes; assay: Milk composition (crude protein, somatic cell count, fat, lactose) and milk yield after L-arginine supplementation from day 100 of pregnancy to parturition (Example 1); assay type: in vivo, sheep
Source text: (§1) Twin-bearing, multiparous Romney ewes were housed in individual stalls and fed once daily, a lucerne-based pellet diet formulated to meet 100% of the NRC-recommended maintenance requirements for twin-bearing pregnant and lactating ewes throughout the trial.
(§2) From day 100 of pregnancy to parturition, ewes received either an injected bolus of L-arginine-mono-hydrochloride (L-arginine-HCL; Merck KGaA, Darmstadt, Germany; 345 μmol/kg body weight (BW)) or a control being approximately the same volume of sterile saline injected three times daily (0800, 1600, 2400 hrs).
At the first sign of labour induction, which was between 1 and 10 hours (h) prior to birth, L-arginine treatment ceased and ewes were allowed to lamb naturally. In total 25 ewes were used (arginine group, n=13; control group n=12).
Ewes were assigned to milking groups based on parturition date. Collection of a colostrum sample within the 12 h post partum could have compromised animal behaviour and ewe-lamb bond formation. Therefore, a range of 0.58-1.22 days in lactation was produced when the “colostrum” sample was collected. Ewes were then milked approximately at day 1, 4, 7, 10 and 14 of lactation, using the oxytocin method. At each milking, ewes were milked by machine followed by hand stripping, after an intravenous injection of 1 IU of synthetic oxytocin (Oxytocin V, 10 IU/mL). The time when the udder was empty was recorded. Animals were milked again (machine and hand-stripping) approximately 4 h later, with the time and weight of the milk recorded. Lambs were separated from the ewes and bottle-fed as required during the intervening period, using the milk collected from their respective dam. The same operators milked all ewes on each occasion in this study using a mobile milking machine. Milk obtained after the 4 h intervening period was subsampled for analysis of milk composition (% fat, % crude protein (CP), % lactose and somatic cell count). Milk samples were preserved with bronopol and refrigerated at 4° C. until analysis using a FT120-FTIR, calibrated for sheep milk. Two reference checks (fat and CP) were taken during lactation to account for changes in the matrix of the milk due to stage of lactation. Somatic cell counts were determined using a bromide based fluorescent dye and a FOSS flow Cytometer and values log transformed. Ewes were weighed and body condition scored (scale of 1 to 5) once a week.
Throughout milking, dams and offspring were housed in individual pens immediately adjacent to each other. Daily milk yield was calculated. Repeated measures analysis of milk yield and composition using the MIXED procedure with a linear model that included the fixed effects of dam, dam treatment group, and the covariates average dam live weight, average dam body condition score and days in lactation were included in the model. From the 25 ewes available only 18 were used for statistical analysis (arginine group n=8; control group n=10).

[2] = Effect of i.v. bolus on plasma arginine concentration; assay type: in vivo, sheep
Description: FIG. 4 is a graph from the above study illustrating plasma arginine concentrations immediately prior to (−5 min) and 30, 60 and 180 minutes following an i.v. bolus of arginine or saline (controls) in twin-bearing ewes (n=9/group) at 120 days gestation.
FIG. 5 is a graph from the above study illustrating plasma arginine concentrations 1 hour following a bolus of arginine or saline (controls) and immediately prior to slaughter at day 140 gestation in twin-bearing ewes (n=6/group).
To determine the magnitude of the increase in circulating Arg concentrations following a single bolus (3 boluses were given each day), plasma samples collected from all ewes at day 120 of gestation at time −5 (immediately prior to bolus), 30, 60 and 180 minutes following the bolus (Arg or saline) were analysed for Arg concentration using reverse-phase high-performance liquid chromatography (Sales et al., 2012). Nine ewes per treatment group were randomly selected for analysis.

[3] = system: Twin-bearing, multiparous Romney ewes; assay: Milk free amino acid profiles by HPLC (Example 1); assay type: in vivo, sheep; conditions: saline-treated controls compared to L-arginine treated ewes
Source text: as §1, §2
Milk free amino acids (FAA) were analysed using High-Performance Liquid Chromatography (HPLC). Skim milk (500 μL) was mixed with 500-4, lithium extraction buffer (14 g/L lithium chloride, 3 g/L lithium hydroxide, 1 g/L phenol, 50 g/L sulfosalic acid) and placed on ice for 15 to 20 min. Volumes of 10-μL lithium hydroxide (5.88 M) were added to the sample to obtain a final pH of 1.5 to 2. This was followed by centrifugation at 13,680×g for 5 min at 4° C., and the resulting supernatant was filtered through a 4 mm 0.2 μm syringe filter. The filtered sample was analysed for FAA using a Shimadzu LC 10Ai HPLC, fitted with a high-efficiency lithium-ion exchange column (3 mm i.d.×150 mm) Injected volumes were 10 μL, the reagent flow rate was 0.3 mL/min, and the run was 162 min between injections, using lithium buffers as elutants and ninhydrin post column derivatization. Free amino acid values are reported as μmol per liter of milk. Differences between treatment groups were analysed using the MIXED procedure (SAS) with a linear model that included the fixed effects of dam, dam treatment group, and the covariates average dam live weight, average dam body condition score and days in lactation were included in the model.

[4] = system: non-gestational (and pre-ruminant) calves; conditions: cited from earlier work

Compound: Cl.N=C(N)NCCC[C@H](N)C(=O)O [L-arginine, L-arginine-mono-hydrochloride]
- variation in SCC between animals (twin-bearing ewes; control compared to arginine-supplemented ewes, at each time-point and over time): greater in the control
- somatic cell count (SCC) lower than controls (twin-bearing ewes; day 1 (colostrum) of lactation): 77%
- somatic cell count (SCC) lower relative to controls (twin-bearing ewes; day 7 of lactation): ~75%
- somatic cell count (SCC) lower than controls (twin-bearing ewes; day 10 of lactation): 53%
- somatic cell count (SCC) lower relative to controls (twin-bearing ewes; day 14 of lactation): ~75%
- SCC in milk (twin-bearing ewes; throughout the period of study, control ewes 787,000-2,594,000 cells/ml): 366,000-589,000 cells/ml
- plasma white blood cell levels (sheep): increase in white blood cell levels
- MSC count compared to control animals ([1]; between day 1 and day 4 post parturition and administration stopping): significantly lower
- Milk somatic cell counts ([1]; day 4-14 of lactation, compared to saline-treated controls): decreased
- MSC counts ([1]; ewes treated with L-arginine, untreated ewes higher than 500,000): below 300,000
- fat percentage ([1]; milk, day 1 of lactation, saline-treated controls compared to L-arginine treated ewes): trend for increased fat percentage at day 1 in saline-treated controls
- Crude protein percentage ([1]; milk, day 4-7 of lactation, compared to saline-treated controls, 345 μmol/kg BW three times daily): increased
- crude milk protein percentage ([1]; milk, day 14 of lactation, saline-treated controls compared to L-arginine-treated ewes): trend for increased crude milk protein percentage was observed in saline-treated controls
- lactose percentage ([1]; milk, post parturition, versus saline-treated controls): No effect
- duration of protective response in terms of milk somatic cell count ([1]; post administration (administration day 100 to parturition)): at least 14 days
- milk yield ([1]; post parturition, versus saline-treated controls): No effect
- increase in circulating Arg concentrations ([2]; 30 minutes following single i.v. bolus, day 120 of gestation): 4 fold
- plasma Arg relative to controls ([2]; 1 hour following a bolus, immediately prior to slaughter at 140 days of gestation, P<0.0001): 4.6 times higher than controls
- time for circulating concentrations of Arg to return to baseline ([2]; after i.v. bolus, day 120 of gestation): ≤ 3 h
- elevated circulating Arg concentrations relative to control ([2]; until at least 60 minutes post-dosage, single i.v. bolus, day 120 of gestation): 3 times the control
- absolute milk free concentration of histidine ([3]; day 7 post parturition): significantly decreased in saline-treated controls
- absolute milk free concentration of phenyalanine ([3]; day 7 post parturition): significantly decreased in saline-treated controls
- absolute milk free concentration of tryptophan ([3]; day 7 post parturition): significantly decreased in saline-treated controls
- absolute milk free concentration of tyrosine ([3]; day 7 post parturition): significantly decreased in saline-treated controls
- milk free asparagine ([3]; day 14 post parturition): significantly decreased
- milk free glutamate ([3]; day 14 post parturition): trends for decreased
- milk free leucine ([3]; day 14 post parturition): trends for decreased
- milk free tyrosine ([3]; day 14 post parturition): trends for decreased
- antibody production in plasma [4]: reduction in antibody production
